These results are taken from ChEMBL document CHEMBL1132263, “Synthesis of caged peptides using caged lysine: application to the synthesis of caged AIP, a highly specific inhibitor of calmodulin-dependent protein kinase II” (Bioorg Med Chem Lett, 1999).

Structures are written as SMILES. Where a SMILES comes first, the peptide text is derived from it. The star is where a group is joined. X1 = O=C(OCc1ccccc1[N+](=O)[O-])*; Cbz = O=C(OCc1ccccc1)*

As a reminder, the IC50 is the concentration that inhibits the measured activity by half. Read a high IC50 as weaker potency.

For the test, the target named is CaM kinase II (Homo sapiens, UniProt Q13557+Q13555+Q13554+Q9UQM7). Kind of test: Inhibitory activity of compound against CaMKII. The format is protein assay.

Compound `CC(C)C[C@H](NC(=O)[C@H](C)NC(=O)[C@H](CC(=O)O)NC(=O)[C@@H](NC(=O)[C@H](C)NC(=O)[C@H](CCC(=O)O)NC(=O)[C@H](CCC(N)=O)NC(=O)[C@H](CCCN=C(N)N)NC(=O)[C@H](CCCN=C(N)N)NC(=O)[C@H](CC(C)C)NC(=O)[C@H](C)NC(=O)[C@H](CCCCN)NC(=O)[C@@H](N)CCCCNC(=O)OCc1ccccc1[N+](=O)[O-])C(C)C)C(=O)O` (H-K(X1)KALRRQEAVDAL-OH) gave an IC50 of 36 nM.

With `CC(C)C[C@H](NC(=O)[C@H](C)NC(=O)[C@H](CC(=O)O)NC(=O)[C@@H](NC(=O)[C@H](C)NC(=O)[C@H](CCC(=O)O)NC(=O)[C@H](CCC(N)=O)NC(=O)[C@H](CCCN=C(N)N)NC(=O)[C@H](CCCN=C(N)N)NC(=O)[C@H](CC(C)C)NC(=O)[C@H](C)NC(=O)OCc1ccccc1)C(C)C)C(=O)O` (Cbz-ALRRQEAVDAL-OH), the half-inhibitory concentration (IC50) was found to be 1000 nM.

Compound `CC(C)C[C@H](NC(=O)[C@H](C)NC(=O)[C@H](CC(=O)O)NC(=O)[C@@H](NC(=O)[C@H](C)NC(=O)[C@H](CCC(=O)O)NC(=O)[C@H](CCC(N)=O)NC(=O)[C@H](CCCN=C(N)N)NC(=O)[C@H](CCCN=C(N)N)NC(=O)[C@H](CC(C)C)NC(=O)[C@H](C)NC(=O)[C@H](CCCCN)NC(=O)[C@@H](N)CCCCN)C(C)C)C(=O)O` (H-KKALRRQEAVDAL-OH) registered a half-maximal inhibitory concentration (IC50) of 32 nM.

The compound `CC(C)C[C@H](NC(=O)[C@H](C)NC(=O)[C@H](CC(=O)O)NC(=O)[C@@H](NC(=O)[C@H](C)NC(=O)[C@H](CCC(=O)O)NC(=O)[C@H](CCC(N)=O)NC(=O)[C@H](CCCN=C(N)N)NC(=O)[C@H](CCCN=C(N)N)NC(=O)[C@H](CC(C)C)NC(=O)[C@H](C)NC(=O)[C@H](CCCCNC(=O)OCc1ccccc1[N+](=O)[O-])NC(=O)[C@@H](N)CCCCNC(=O)OCc1ccccc1[N+](=O)[O-])C(C)C)C(=O)O` (H-K(X1)K(X1)ALRRQEAVDAL-OH) registered an IC50 of 1200 nM.
